According to PubChem BioAssay AID330 (DTP/NCI, 2004):
Several values for one entry are separate records, joined by “and”; a condition that tells them apart may be missing. Equal entries are not always repeated. Toxic doses and inconclusive results are not listed. Rule for the calls: active = survival T/C of 150% or more; inactive = T/C below 125% in these data.

Test system: P388 leukemia ip, CD2F1 mice, survival T/C
Assay: NCI In Vivo Anticancer Drug Screen. Data for tumor model P388 Leukemia (intraperitoneal) in CD2F1 (CDF1) mice
Details: endpoint: median survival time, higher = longer survival
Procedure, shortened: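 Mice carrying the transplanted tumor received test compound or vehicle. Survival was recorded in each group, and the value is the treated-group measurement divided by that of the vehicle-treated control group.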

[1] = dose: 50.0 mg/kg/injection, schedule: Q01DX009 (ip), vehicle: saline
[2] = dose: 100.0 mg/kg/injection, schedule: Q01DX009 (ip), vehicle: saline
[3] = dose: 200.0 mg/kg/injection, schedule: Q01DX009 (ip), vehicle: saline
[4] = dose: 15.0 mg/kg/injection, schedule: Q01DX005 (ip), vehicle: saline with Tween-80
[5] = dose: 30.0 mg/kg/injection, schedule: Q01DX005 (ip), vehicle: saline with Tween-80
[6] = dose: 60.0 mg/kg/injection, schedule: Q01DX005 (ip), vehicle: saline with Tween-80
[7] = dose: 100.0 mg/kg/injection, schedule: Q04DX002 (ip), vehicle: saline with Tween-80
[8] = dose: 200.0 mg/kg/injection, schedule: Q04DX002 (ip), vehicle: saline with Tween-80
[9] = dose: 50.0 mg/kg/injection, schedule: Q01DX005 (ip), vehicle: saline with Tween-80
[10] = dose: 100.0 mg/kg/injection, schedule: Q01DX005 (ip), vehicle: saline with Tween-80
[11] = dose: 200.0 mg/kg/injection, schedule: Q01DX005 (ip), vehicle: saline with Tween-80
[12] = dose: 100.0 mg/kg/injection, schedule: Q04DX003 (ip), vehicle: saline with Tween-80
[13] = dose: 50.0 mg/kg/injection, schedule: Q01DX005 (ip), vehicle: Klucel (hydroxypropylcellulose) (HPC)
[14] = dose: 100.0 mg/kg/injection, schedule: Q01DX005 (ip), vehicle: Klucel (hydroxypropylcellulose) (HPC)
[15] = dose: 200.0 mg/kg/injection, schedule: Q01DX005 (ip), vehicle: Klucel (hydroxypropylcellulose) (HPC)
[16] = dose: 100.0 mg/kg/injection, schedule: Q01DX001 (ip), vehicle: Klucel (hydroxypropylcellulose) (HPC)
[17] = dose: 200.0 mg/kg/injection, schedule: Q01DX001 (ip), vehicle: Klucel (hydroxypropylcellulose) (HPC)
[18] = dose: 400.0 mg/kg/injection, schedule: Q01DX001 (ip), vehicle: Klucel (hydroxypropylcellulose) (HPC)

Measured: T/C

COc1cc2cnc(-c3ccc(Cl)c(Cl)c3)c(O)c2cc1OC
inactive: [1] 90 % of control | [2] 102 % of control | [3] 90 % of control

Cc1ccc2cccc(OC(=O)Nc3ccc(C)c(NC(=O)Oc4cccc5ccc(C)nc45)c3)c2n1
inactive: [4] 95 % of control | [5] 97 % of control | [6] 99 % of control and 93 % of control

Nc1cc(C(=O)O)cc(Cl)n1
inactive: dose: 3.12 mg/kg/injection, schedule: Q01DX009 (ip), vehicle: saline 108 % of control | dose: 6.25 mg/kg/injection, schedule: Q01DX009 (ip), vehicle: saline 101 % of control | dose: 12.5 mg/kg/injection, schedule: Q01DX009 (ip), vehicle: saline 107 % of control | dose: 25.0 mg/kg/injection, schedule: Q01DX009 (ip), vehicle: saline 111 % of control

O=Cc1cccc(OC(=O)Oc2cccc(C=O)c2)c1
inactive: dose: 100.0 mg/kg/injection, schedule: Q01DX001 (ip), vehicle: saline with Tween-80 101 % of control | dose: 200.0 mg/kg/injection, schedule: Q01DX001 (ip), vehicle: saline with Tween-80 99 % of control | dose: 400.0 mg/kg/injection, schedule: Q01DX001 (ip), vehicle: saline with Tween-80 104 % of control

CCn1c2nc(=O)n(C)c(=O)c-2cc2ccccc21
inactive: dose: 50.0 mg/kg/injection, schedule: Q01DX009 (ip), vehicle: saline with Tween-80 111 % of control | dose: 100.0 mg/kg/injection, schedule: Q01DX009 (ip), vehicle: saline with Tween-80 111 % of control | dose: 200.0 mg/kg/injection, schedule: Q01DX009 (ip), vehicle: saline with Tween-80 116 % of control

CCC12C=CCN3CC[C@@]4(c5cc([C@@]6(C(=O)OC)CC7CN(CCc8c6[nH]c6ccccc86)C[C@](O)(CC)C7)c(OC)cc5N(C)[C@H]4[C@]4(OCOC4=O)[C@@H]1O)C32 (some centres not stated)
inactive: dose: 0.5 mg/kg/injection, schedule: Q01DX005 (ip), vehicle: saline 102 % of control | dose: 1.0 mg/kg/injection, schedule: Q01DX005 (ip), vehicle: saline 91 % of control | dose: 2.0 mg/kg/injection, schedule: Q01DX005 (ip), vehicle: saline 92 % of control

O=C1C(C(=NC2CCCCC2)c2ccccc2)=C(O)c2ccccc21
inactive: [7] 104 % of control | [8] 100 % of control

O=C(O)c1cccnc1C(=O)O
inactive: [1] 105 % of control | [2] 96 % of control and 100 % of control and 111 % of control | [3] 86 % of control and 102 % of control and 97 % of control | dose: 400.0 mg/kg/injection, schedule: Q01DX009 (ip), vehicle: saline 100 % of control and 90 % of control

C/C(=N\NC(=S)Nc1ccc(C(=O)O)cc1)c1ccc2ccccc2n1
inactive: [9] 105 % of control | [10] 114 % of control

COC(=O)N1C=CC2ON=C(OC)C2C1c1ccccc1 (configuration not stated)
inactive: [9] 98 % of control | [10] 98 % of control | [11] 101 % of control

Nc1ccc(S(=O)O)cc1
inactive: [12] 100 % of control | dose: 200.0 mg/kg/injection, schedule: Q04DX003 (ip), vehicle: saline with Tween-80 100 % of control | dose: 400.0 mg/kg/injection, schedule: Q04DX003 (ip), vehicle: saline with Tween-80 100 % of control

COc1cc2c(cc1OC)C13CCC(O)CC1=CC2(C)O3 (configuration not stated)
inactive: dose: 50.0 mg/kg/injection, schedule: Q04DX002 (ip), vehicle: saline with Tween-80 96 % of control | [7] 96 % of control | [8] 89 % of control

O=C1Nc2ccccc2C2CCCCC12 (configuration not stated)
inactive: [9] 107 % of control | [10] 102 % of control | [11] 98 % of control

O=C(NC(Cc1ccc(Cl)cc1)C(=O)O)c1cccc(Br)c1 (configuration not stated)
inactive: [13] 102 % of control | [14] 100 % of control | [15] 110 % of control

C=C(C)C(=O)O[C@H]1[C@H]2[C@H](OC(=O)[C@H]2C)[C@H](O)[C@@H](C)[C@@H]2C=CC(=O)[C@]21C
inactive: dose: 7.5 mg/kg/injection, schedule: Q01DX009 (ip), vehicle: saline with Tween-80 118 % of control | dose: 15.0 mg/kg/injection, schedule: Q01DX009 (ip), vehicle: saline with Tween-80 113 % of control | dose: 30.0 mg/kg/injection, schedule: Q01DX009 (ip), vehicle: saline with Tween-80 124 % of control

CS(=O)(=O)N/N=C(\N)Oc1ccc(Cl)cc1Cl
inactive: [6] 97 % of control | dose: 120.0 mg/kg/injection, schedule: Q01DX005 (ip), vehicle: saline with Tween-80 93 % of control | dose: 240.0 mg/kg/injection, schedule: Q01DX005 (ip), vehicle: saline with Tween-80 88 % of control

Cc1cc[n+](C)c2ccccc12
inactive: dose: 9.37 mg/kg/injection, schedule: Q01DX009 (ip), vehicle: saline with Tween-80 109 % of control | dose: 18.75 mg/kg/injection, schedule: Q01DX009 (ip), vehicle: saline with Tween-80 100 % of control | dose: 37.5 mg/kg/injection, schedule: Q01DX009 (ip), vehicle: saline with Tween-80 104 % of control

O=C(/C=C/c1ccccc1)Oc1ccccc1[N+](=O)[O-]
inactive: [16] 92 % of control | [17] 93 % of control | [18] 92 % of control

CN(C)c1ccc2c(c1)C(=O)N(OS(=O)(=O)c1ccccc1)C2=O
inactive: [9] 100 % of control | [10] 103 % of control | [11] 96 % of control

CCC(=O)/C=C/c1cc(OC)c(OC)c(OC)c1
inactive: [16] 107 % of control | [17] 107 % of control | [18] 100 % of control

CN(C)CCN1C(=O)C2(C)C3CCC(O3)C2(C)C1=O (configuration not stated)
inactive: [9] 103 % of control | [10] 100 % of control | [11] 100 % of control

Cc1ccc(N2CC=C(c3ccccc3)OP2(=O)N2CC2)cc1 (configuration not stated)
inactive: [13] 101 % of control | [14] 101 % of control | [15] 94 % of control

COc1cccc(-c2ccncc2)c1
inactive: [9] 102 % of control | [10] 93 % of control | [11] 93 % of control

c1ccc(C(NC2=NCCCCCC2)c2ccco2)cc1 (configuration not stated)
inactive: dose: 7.5 mg/kg/injection, schedule: Q01DX005 (ip), vehicle: saline with Tween-80 99 % of control | [4] 93 % of control | [5] 101 % of control

CSc1ncnc2c1ncn2C1OC(CO)C(O)OC1O (configuration not stated)
inactive: dose: 16.5 mg/kg/injection, schedule: Q01DX009 (ip), vehicle: saline with Tween-80 122 % of control | dose: 50.0 mg/kg/injection, schedule: Q04DX003 (ip), vehicle: saline with Tween-80 109 % of control | dose: 66.0 mg/kg/injection, schedule: Q04DX003 (ip), vehicle: saline with Tween-80 112 % of control | [12] 108 % of control

O=[N+]([O-])CCc1ccc(OC2OC(CO)C(O)C(O)C2O)cc1 (configuration not stated)
inactive: dose: 100.0 mg/kg/injection, schedule: Q04DX002 (ip), vehicle: saline 104 % of control | dose: 200.0 mg/kg/injection, schedule: Q04DX002 (ip), vehicle: saline 102 % of control | dose: 400.0 mg/kg/injection, schedule: Q04DX002 (ip), vehicle: saline 97 % of control

N#C/C(=N\NC(=O)c1cccs1)c1ccccc1Cl
inactive: [9] 93 % of control | [10] 103 % of control | [11] 106 % of control

Oc1cc(Cl)c(O)c(-c2ccccc2)c1Cl
inactive: [9] 102 % of control | [10] 102 % of control | [11] 90 % of control

NNC(=O)C(=O)n1ccnc1
inactive: [9] 95 % of control | [10] 102 % of control | [11] 101 % of control

Cc1ccccc1C1C2CCCC(C2=O)C(c2ccccc2C)N1C (configuration not stated)
inactive: dose: 100.0 mg/kg/injection, schedule: Q04DX003 (ip), vehicle: saline 100 % of control | dose: 200.0 mg/kg/injection, schedule: Q04DX003 (ip), vehicle: saline 103 % of control | dose: 400.0 mg/kg/injection, schedule: Q04DX003 (ip), vehicle: saline 89 % of control

O=c1[nH]c2c([N+](=O)[O-])cccc2nc1/C=C(\O)c1cccc([N+](=O)[O-])c1
inactive: dose: 7.5 mg/kg/injection, schedule: Q01DX005 (ip), vehicle: Klucel + Tween-80 94 % of control | dose: 15.0 mg/kg/injection, schedule: Q01DX005 (ip), vehicle: Klucel + Tween-80 94 % of control | dose: 30.0 mg/kg/injection, schedule: Q01DX005 (ip), vehicle: Klucel + Tween-80 88 % of control

CN1C(=O)/C(=C2\SC(=O)N(Cc3nc4ccccc4[nH]3)C2=O)c2cc(Br)ccc21
inactive: [16] 98 % of control | [17] 95 % of control | [18] 88 % of control
